Reference: patent publication US20030065039A1, “Biologically active 1,3-bis-aromatic-prop-2-en-1-ones, 1,3-bis-aromatic-propan-1-ones, and 1,3-bis-aromatic-prop-2-yn-1-ones” (Statens Serum Institute, priority 1997, published 2003)
≈ marks a conversion by molar mass, not a printed value.

Legend:
[1] = tested on: Leishmania promastigotes; assay: Leishmania promastigotes Assay; format: cell-based; conditions: Leishmania; promastigotes, 3H-thymidine uptake; read-out: Leishmania IC50 ± SD
Experimental: A WHO reference vaccine strain of L. major originally isolated from a patient in Iran and a Kenyan strain of L. donovani (MHOM(/KE/85/NLB 274) were cultured in medium 199 containing 0.02 mg/ml gentamycin, 25 mM Hepes, 4 mM L-glutamine, and 20% heat inactivated fetal calf serum (FCS). Incubation was carried out at 26° C. Promastigotes were harvested on day 3 and 6 of the culture and used for the parasite growth inhibition.
The effect of the test compounds on promastigotes was assessed by a method similar to the one described by Pearson et al., by incubating promastigotes (3×10^6/ml) at 26° C. for 2 hrs in the presence of a given compound or the medium alone in 96 wells flat bottom microtiter plates. Following incubation, 100 μCi of 3H-thymidine was added to each well and further incubated for 18 hrs. Promastigotes were then harvested on filter paper by means of a cell harvester, extensively washed with distilled water and counted in a scintillation counter. The promastigotes were also counted microscopically and their flagellar motility was assessed.

[2] = tested on: human lymphocytes; assay: Lymphocyte Proliferation Assay; format: cell-based; conditions: Lymphocyte; PHA provoked proliferation of human lymphocytes; read-out: Lymphocytes IC50 ± SD
Experimental: Human blood mononuclear cells (BMNC) from heparinized blood were isolated by metrizoate sodium-Ficoll density gradient centrifugation, washed 3 times in RPMI 1640 medium supplemented with 5% FCS and with 400 IU of penicillin plus 400 μg/ml streptomycin. BMNC were resuspended in the medium and cultured in triplicate, 0.63×10^5/ml and 160 μl per vial, in round-bottom microtiter plates with 20 μl of various concentrations of the test compound. Immediately prior to incubation, optimum concentrations of the mitogen phytohaemagglutinin (PHA) and the antigen purified protein derivative of tuberculin (PPD) were added to the cultures in a volume of 20 μl. Unstimulated control cultures were always included. Cultures were incubated for 3 or 7 days. The degree of lymphocyte proliferation was estimated by ^3H-thymidine (1 μCi per well) addition 24 h before the cells were harvested on glass fiber filters by means of a harvesting machine), and ^3H-thymidine incorporation was measured in a liquid scintillation counter. For each set of triplicate values, the median was recorded. Unstimulated cultures were always included as controls.

[3] = tested on: Plasmodium falciparum; assay: Plasmodium falciparum Assay; format: cell-based; conditions: Plasmodium falciparum; 3-H-hypoxanthine incorporation, 48 hours; read-out: Plasmodium IC50 ± SD
Experimental: The experiments in which compounds were tested for their ability to inhibit parasite growth were performed by a modification of the method originally described by Jensen et al. (1982). 50 μl of parasitized erythrocytes (parasitemia approximately 1%) in a concentration of 5×10^8/ml and 50 μl of RPMI medium containing different concentrations of the test compound was added to each well of a 96 well flat-bottomed microtiter plate. The cultures were then incubated for 48 hours, 24 hours before termination of the culture adding 20 μl of 3-H-hypoxanthine (40 uCi/ml) was added to each well. The cultures were then harvested onto glass fiber filters using a Skatron cell harvester, and the incorporation of 3-H-hypoxanthine into the DNA of dividing parasites was determined by liquid scintillation spectrometry. Control cultures with uninfected erythrocytes and infected erythrocytes in RPMI medium without test compounds were always performed in parallel to the test cultures. In some experiments thin smears of parasite cultures were stained by Giemsa and examined under microscope (×1000). The test compounds described above, were diluted in RPMI medium immediately before use. In the experiments, chloroquine phosphate was used as a positive control as a drug known to inhibit parasite growth.

[4] = tested on: Helicobacter pylori; assay: Helicobacter species Assay (agar plate, MIC); format: cell-based
Experimental: (§1) 20 strains of Helicobacter pylori were used in an agar plate assay. The compounds were incorporated in the agar plates at different concentrations as described in the examples and were then inoculated with different strains of Helicobacter pylori followed by incubation in a microaerophilic atmosphere at 37° C. for 72 hours. The number of colony-forming units (CFU) were counted after the incubation period. The MIC values were determined as the minimal concentration required to inhibit growth of the bacteria.
(§2) Stock solutions were made at a concentration of 1 mg/ml by dissolving 1 mg of each compound in 100 μl DMSO (dimethylsulfoxide) followed by addition of 900 μl of heat-inactivated fetal claf serum (HFCS). These stock solutions were diluted with HFCS to make solutions having the following concentrations: 320 μg/ml, 160 μg/ml, 80 μg/ml, 40 μg/ml and 20 μg/ml. Dilution rows were made with 3 ml aliquots in vials containing the compounds in the following final test concentrations: 16 μg/ml, 8 μg/ml, 4 μg/ml, 2 μg/ml and 1 μg/ml. As control was used DMSO-HFCS containing an amount of DMSO equal to the amount of test compound in the solution with 320 μg/ml compound.
as §1, with “Bacteria: 20” for “20”, “concentrations” for “concentrations as described in the examples”, “and then they” for “and”, “were” for “were then”, “incubation at” for “incubation in a”, “C. in” for “C. for”
as §2, with “concentrations: 2560 μg/ml, 1280 μg/ml, 640 μg/ml,” for “concentrations:”, “160 µg/ml and” for “160 μg/ml,”, “80” for “80 μg/ml, 40 μg/ml and 20”, “concentrations: 128 μg/ml, 64 μg/ml, 32 μg/ml, 12” for “concentrations: 16”, “8” for “8 μg/ml, 4 μg/ml, 2”, “and 4” for “and 1”
Bacteria: 20 strains of Helicobacter pylori were used in an agar plate assay. The same method as described above under Experiment A was employed and MIC values were determined.

| SMILES | IC50 [1] | IC50 [2] | IC50 [3] | melting point | MIC ([4]; Helicobacter pylori, 20 strains of H. pylori, agar plate, 72 hours, read-out: MIC) | strains of Helicobacter pylori inhibited ([4]; at a concentration of 16 μg/ml, 20 strains) | No. strains inhibited/No. strains tested ([4]; at the MIC of the same line) |
| --- | --- | --- | --- | --- | --- | --- | --- |
| CCCCOc1ccccc1/C=C/C(=O)c1ccc(OC)c(OC)c1OC [2-OC4H9-2′,3′,4′-OCH3, 2-butoxy-2′,3′,4′-trimethoxychalcone] | 26 ± 1 µM | 52 ± 3 µM | 7.8 µM | 129.4 to 130.2 °C |  |  |  |
| COc1ccc(C(=O)/C=C/c2ccccc2O)c(OC)c1OC [2-OH-2′,3′,4′,-OCH3, 2-hydroxy-2′,3′,4′-trimethoxychalcone] | 9.3 ± 1 µM | 9 ± 0.7 µM | 10 µM | 122.6 to 123 °C |  |  |  |
| COc1cc(/C=C/C(=O)c2ccc(OC)c(OC)c2OC)cc(OC)c1 [2′,3′,4′,3,5-OCH3, 3,5,2′,3′,4′-pentamethoxychalcone] | 8.3 ± 0.9 µM | 8.7 ± 0.5 µM |  | 111.6 to 112.5 °C |  |  |  |
| COc1cc(/C=C/C(=O)c2ccccc2N(C)C)cc(OC)c1 [2′-N(CH3)2-3,5-OCH3, 3,5-dimethoxy-2′-dimethylaminochalcone] | 7.3 ± 1 µM | 5.7 ± 0.3 µM | 13 µM | 159.8 to 160.5 °C |  |  |  |
| COc1cc(/C=C/C(=O)c2ccccc2[N+](=O)[O-])cc(OC)c1 [2′-NO2-3,5-OCH3, 3,5-dimethoxy-2′-nitrochalcone] | 3.4 ± 0.5 µM | 3.7 ± 0.2 µM | 7.4 µM | 98.4 to 98.9 °C |  |  |  |
| CCCCOc1ccccc1C(=O)/C=C/c1cc(OC)cc(OC)c1 [2′-OC4H9-3,5-OCH3, 3,5-dimethoxy-2′-butoxychalcone] | 7.2 ± 1.2 µM | 13 ± 1 µM | 25 µM | 69.5 to 70.1 °C |  |  |  |
| COc1cc(/C=C/C(=O)c2ccccc2O)cc(OC)c1 [2′-OH-3,5-OCH3, 3,5-dimethoxy-2′-hydroxychalcone] | 3.8 ± 0.9 µM | 8.1 ± 0.8 µM | 20 µM | 110.2 to 110.9 °C |  |  |  |
| COc1ccc(C(=O)/C=C/c2cccc(N(C)C)c2)c(OC)c1OC [3-N(CH3)2-2′,3′,4′-OCH3, 3-dimethylamino-2′,3′,4′-trimethoxychalcone] | 20 ± 3 µM | 26 ± 1 µM | 12 µM | 87.2 to 87.9 °C |  |  |  |
| COc1ccc(C(=O)/C=C/c2cccc([N+](=O)[O-])c2)c(OC)c1OC [3-NO2-2′,3′,4′-OCH3, 3-nitro-2′,3′,4′-trimethoxychalcone] | 17 ± 2 µM | 36 ± 2 µM | 5.5 µM | 130.1 to 130.7 °C |  |  |  |
| COc1cccc(C(=O)/C=C/c2ccc(OC)cc2OC)c1 [3′,2,4-OCH3, 2,4,3′-trimethoxychalcone] | 18 ± 3 µM | 42 ± 2 µM |  | 75.6 to 78.9 °C |  |  |  |
| COc1cc(/C=C/C(=O)c2cccc(N(C)C)c2)cc(OC)c1 [3′-N(CH3)2-3,5-OCH3, 3,5-dimethoxy-3′-dimethylaminochalcone] | 5.8 ± 0.7 µM | 5 ± 0.2 µM | 29 µM | 81.8 to 82.6 °C |  |  |  |
| COc1ccc(/C=C/C(=O)c2cccc([N+](=O)[O-])c2)c(OC)c1 [3′-NO2-2,4-OCH3, 2,4-dimethoxy-3′-nitrochalcone] | 8.6 µM | 18 ± 2 µM |  | 88.1 to 88.7 °C |  |  |  |
| COc1cc(/C=C/C(=O)c2cccc(O)c2)cc(OC)c1 [3′-OH-3,5-OCH3, 3,5-dimethoxy-3′-hydroxychalcone] | 3.7 ± 0.6 µM | 3.2 ± 0.4 µM | 28 µM | 126.2 to 126.8 °C |  |  |  |
| COc1ccc(C(=O)/C=C/c2ccc(C#N)cc2)c(OC)c1OC [4-CN-2′,3′,4′-OCH3, 4-cyano-2′,3′,4′-trimethoxychalcone] | 8.6 ± 0.9 µM | 5.4 ± 0.3 µM | 7.6 µM | 131.7 to 133 °C |  |  |  |
| O=C(/C=C/c1ccc(Oc2ccccc2)cc1)c1ccc(F)cc1 [4′-F-4-OC6H5, 4-phenoxy-4′-fluorochalcone] | 42 ± 6 µM | 33 ± 2 µM |  | 115.7 to 116 °C |  |  |  |
| O=C(/C=C/c1ccc(Oc2ccccc2)cc1)c1ccc(C2CCCCC2)cc1 [4′-cC6H11-4-OC6H5, 4-phenoxy-4′-cyclohexylchalcone] |  |  | 200 µM | 160.9 to 161.1 °C |  |  |  |
| COc1ccc(C(=O)/C=C/c2ccccc2[N+](=O)[O-])c(OC)c1OC [PH98, 2-nitro-2′,3′,4′-trimethoxychalcone] | 5.9 ± 0.4 µM | 7 ± 0.6 µM | 9.3 µM | 107.1 to 108 °C | 16 µg/mL (≈ 46.6 µM) | 4 out of 20 | 6/20 |
